One assay relates to iCasp9-GFP J2s. The assay is described as follows: Annexin V / SYTOX apoptosis flow cytometry. Format: cell-based. To be noted: within the first hour after CID treatment. From the text: Inducible caspase-9 (iCasp9), which is activated by treatment with a small molecule chemical inducer of dimerization (CID; also known as rapalog, an analog of rapamycin) and leads to subsequent cell death through the intrinsic apoptosis pathway was utilized (FIG. 1A). The safety and efficacy of the iCasp9 transgene and CID have previously been shown in vitro and in vivo in animals and humans (A. Di Stasi, et al. (2011) dx.doi.org/10.1056/NEJMoa1106152; T. Gargett and M. P. Brown (2014) Front. Pharmacol. 5; K. C. Straathof, et al. (2005) Blood 105, 4247, each of which is herein incorporated by this reference). To generate inducible cells, 3T3-J2 fibroblasts (‘J2’) were transduced with lentivirus with a bidirectional expression cassette encoding iCasp9 and GFP genes (#15567 pMSCV-F-del Casp9.IRES.GFP; cloned to a lentivirus plasmid backbone with an SFFV promoter). FACS was used to enrich the infected population for the 15% highest-expression GFP+ cells. […]
After iCasp9-GFP J2 fibroblasts were exposed to CID, iCasp9 dimers were detected by staining with a caspase-9 antibody (FIG. 1C). […] To confirm that CID-triggered caspase-9 activation led to apoptosis, unfixed cells were stained with Annexin V, which binds to an early indicator of apoptosis, and SYTOX, a general marker of cell death, and analyzed by flow cytometry.
For orientation: In flow cytometry, cells or beads pass a laser one at a time.

The next assay relates to iCasp9-HDFs. Briefly: apoptosis of 2D monolayer fibroblasts (cellular ATP, cell density). Format: cell-based, human. The procedure:
To be able to remove fibroblasts on demand from the developing co-culture, the synthetically engineered, inducibly activated caspase-9 (iCasp9) outlined in the examples above was used. Using this inducible transgene, iCasp9-HDFs were established and characterized for effectiveness. iCasp9-HDFs were seeded on tissue culture plastic, and allowed to form a confluent monolayer before adding different concentrations of CID.

The next assay concerns HUVECs. The assay is described as follows: vascular perfusion in tri-culture microfluidic devices. Format: cell-based, human. To be noted: 50 nM CID after 5 days of tri-culture. From the text: Given that fibroblasts are only transiently required for supporting the formation of a functional vasculature, it was investigated whether CAMEO could be used in the vascularization of tissue constructs with organ-specific parenchymal cells without negatively affecting the function of the parenchymal cells. To investigate this, a tri-culture system of HUVECs, iCasp9-HDFs, and primary human hepatocytes was employed in the microfluidic device. Using the methods described in Example 5, a solution of HUVECs (3 million cells/mL), iCasp-9 HDFs (total of 6 million cells/mL), hepatic aggregates (0.36 million aggregates/mL with about 150 hepatocytes per aggregate), fibrinogen (2.5 mg/mL), thrombin (1 U/mL) was made in a 1:1 mixed media of EGM-2 and hepatocyte maintenance media. After 5 days of tri-culture, the devices were treated with 50 nM CID to remove the iCasp9-HDFs, or with vehicle control. All samples were fixed at day 7 to evaluate vascular perfusion (FIG. 8A). […] To evaluate whether the hepatocytes remained functional after CID treatment, levels of albumin and urea, markers for hepatic protein synthesis function and nitrogen metabolism, respectively, were measured in the media.

Results on one compound are retold here after patent US20240287463A1, “INDUCIBLE TISSUE CONSTRUCTS AND USES THEREOF” (Massachusetts Institute of Technology, priority 2020, published 2024).

On to `CC[C@H](C(=O)N1CCCC[C@H]1C(=O)O[C@H](CCc1ccc(OC)c(OC)c1)c1cccc(OCC(=O)NCC(CNC(=O)COc2cccc([C@@H](CCc3ccc(OC)c(OC)c3)OC(=O)[C@@H]3CCCCN3C(=O)[C@@H](CC)c3cc(OC)c(OC)c(OC)c3)c2)CN(C)C)c1)c1cc(OC)c(OC)c(OC)c1` [CID, AP20187], for which the “proportion of iCasp9-GFP J2s undergoing apoptosis” value with iCasp9-GFP J2s is given as “increased in a time-dependent manner”. Besides, the “time within which cellular ATP levels dropped precipitously” value in the assay on iCasp9-HDFs (5 nM CID) is 2 to 4 h. Moreover, in the assay with iCasp9-HDFs (10 nM CID, overnight), the “reduction of iCasp9-HDFs in culture compared to vehicle control” value is reported as approximately 96%. Further, the “rapidity of ATP loss” value with iCasp9-HDFs (5, 50, 500 nM CID) is “increased with increasing CID concentration”. Moreover, the “vascular perfusion at day 7” value in the assay with HUVECs is “formed perfusable vasculature”.
